≈ marks a conversion by molar mass, not a printed value.
Experiments:
[1] = in vitro; details: human, Caco-2
Description: Efflux ratio of apparent permeability in human Caco-2 cells

[2] = in vitro; details: human, Caco-2; remark: listed apart in the source
Description: Apparent permeability of the compound across apical side to basolateral side in human Caco-2 cells incubated for 150 mins by LC-MS/MS analysis

[3] = in vitro; details: human, Caco-2; remark: listed apart in the source
Description: Apparent permeability of the compound across basolateral side to apical side in human Caco-2 cells incubated for 150 mins by LC-MS/MS analysis

[4] = physchem; details: n-octanol/PBS buffer, pH 7.4
[5] = physchem; details: PBS buffer, pH 7.4
[6] = Inhibition of ALR2 in Wistar rat lens assessed as reduction in NADPH consumption using D,L-glyceraldehyde and NADPH as substrate preincubated for 1 mins followed by substrate addition and measured upto 4 mins by spectrophotometric analysis; type: tissue-based
[7] = species on record: Rattus norvegicus; experiment: Inhibition of ALR2 in Wistar rat lens assessed as reduction in NADPH consumption at 50 uM using D,L-glyceraldehyde and NADPH as substrate preincubated for 1 mins followed by substrate addition and measured upto 4 mins by spectrophotometric analysis; type: tissue-based; details: time 5.0 min
[8] = species on record: Rattus norvegicus; experiment: Inhibition of ALR2 in Wistar rat lens assessed as reduction in NADPH consumption at 30 uM using D,L-glyceraldehyde and NADPH as substrate preincubated for 1 mins followed by substrate addition and measured upto 4 mins by spectrophotometric analysis; type: tissue-based; details: time 5.0 min
[9] = Solubility of the compound at >30 uM; type: physicochemical
[10] = species on record: Rattus norvegicus; experiment: Inhibition of ALR2 in Wistar rat lens assessed as reduction in NADPH consumption at 10 uM using D,L-glyceraldehyde and NADPH as substrate preincubated for 1 mins followed by substrate addition and measured upto 4 mins by spectrophotometric analysis; type: tissue-based; details: time 5.0 min
[11] = species on record: Rattus norvegicus; experiment: Selectivity index, ratio of IC50 for ALR1 in Wistar rat kidney to IC50 for ALR2 in Wistar rat lens
[12] = Inhibition of ALR1 in Wistar rat kidney assessed as reduction in NADPH consumption using sodium D-glucuronate and NADPH as substrate preincubated for 1 mins followed by substrate addition and measured upto 4 mins by spectrophotometric analysis; type: tissue-based
[13] = in vitro; details: dog, MDCK
Description: Efflux ratio of apparent permeability in dog MDCK-II cells

[14] = in vitro; details: dog, MDCK; remark: listed apart in the source
Description: Apparent permeability of the compound across apical side to basolateral side in dog MDCK-II cells incubated for 150 mins by LC-MS/MS analysis

[15] = in vitro; details: dog, MDCK; remark: listed apart in the source
Description: Apparent permeability of the compound across basolateral side to apical side in dog MDCK-II cells incubated for 150 mins by LC-MS/MS analysis

O=c1[nH]c2ccccc2n1CCCN1CCC(n2c(=O)[nH]c3cc(Cl)ccc32)CC1 [DOMPERIDONE]
efflux ratio [1]: 12.2
Papp A→B at 2.5 h [2]: 2.5 ×10⁻⁶ cm/s
Papp B→A at 2.5 h [3]: 30.8 ×10⁻⁶ cm/s

NC(=O)N1c2ccccc2C=Cc2ccccc21 [CARBAMAZEPINE]
efflux ratio [1]: 0.9
Papp A→B at 2.5 h [2]: 26.2 ×10⁻⁶ cm/s
Papp B→A at 2.5 h [3]: 24.8 ×10⁻⁶ cm/s

COCCc1ccc(OCC(O)CNC(C)C)cc1 (centres undefined) [METOPROLOL]
logD [4]: 0.05

CC/C(=C(/CC)c1ccc(O)cc1)c1ccc(O)cc1 [DIETHYLSTILBESTROL]
solubility at 2 h, 200 µM [5]: 11.9 µM (≈ 3.21 µg/mL)

CN(C)CCC=C1c2ccccc2CCc2ccccc21 [AMITRIPTYLINE]
logD [4]: 2.85

CCN(CC)C(=O)CN1C(=O)S/C(=C\c2ccc(O)c(OC)c2)C1=O
IC50 ([6]; read-out: IC50): 56 µM
inhibition [7]: 48%

CCN(CC)C(=O)CN1C(=O)S/C(=C\c2ccc(OC)cc2)C1=O
inhibition [8]: 19.5%
solubility [9]: Insoluble

CCN(CC)C(=O)CN1C(=O)S/C(=C\c2cccc(Cl)c2)C1=O
inhibition [8]: 0%
solubility [9]: Insoluble

CCCCNC(=O)CN1C(=O)S/C(=C\c2ccc(Cl)cc2)C1=O
inhibition [10]: 6.53%
solubility [9]: Insoluble

Cc1ncc2n1-c1ccc(Cl)cc1C(c1ccccc1F)=NC2 [MIDAZOLAM]
logD [4]: 3.28

CC(/C=C1\SC(=S)N(CC(=O)O)C1=O)=C\c1ccccc1
IC50 ([6]; read-out: IC50): 0.227 µM

O=C(CN1C(=O)S/C(=C\c2ccc(OCc3ccc(Cl)cc3Cl)cc2)C1=O)Nc1ccccc1
inhibition [10]: 21.8%
IC50 [6]: Nd(Insoluble)

O=C(CN1C(=O)S/C(=C\c2ccc(O)cc2)C1=O)Nc1ccc(F)cc1
IC50 ([6]; read-out: IC50): 1.47 µM
Ratio IC50 [11]: 5.4
IC50 [12]: 8.06 µM

CCCCNC(=O)CN1C(=O)S/C(=C\c2ccc(O)cc2)C1=O
IC50 ([6]; read-out: IC50): 5.68 µM
solubility [9]: Insoluble
Ratio IC50 [11]: 8.5
IC50 [12]: 48.5 µM

C[C@H]1O[C@@H](O[C@H]2[C@@H](O)C[C@H](O[C@H]3[C@@H](O)C[C@H](O[C@H]4CC[C@@]5(C)[C@H](CC[C@@H]6[C@@H]5C[C@@H](O)[C@]5(C)[C@@H](C7=CC(=O)OC7)CC[C@]65O)C4)O[C@@H]3C)O[C@@H]2C)C[C@H](O)[C@@H]1O [DIGOXIN]
efflux ratio [13]: 30.3
Papp A→B at 2.5 h [14]: 0.19 ×10⁻⁶ cm/s
Papp B→A at 2.5 h [15]: 5.66 ×10⁻⁶ cm/s

COc1ccc(/C=C2\SC(=O)N(CC(=O)Nc3ccccc3)C2=O)cc1O
inhibition [10]: 29.9%
IC50 [6]: Nd(Insoluble)

O=C(CN1C(=O)S/C(=C\c2ccc(O)cc2)C1=O)NCc1ccccc1
IC50 ([6]; read-out: IC50): 19.8 µM

CCc1ccccc1NC(=O)CN1C(=O)S/C(=C\c2ccc(O)cc2)C1=O
IC50 ([6]; read-out: IC50): 1.9 µM
Ratio IC50 [11]: 1.5
IC50 [12]: 2.85 µM

CCN(CC)C(=O)CN1C(=O)S/C(=C/c2ccc(OC)c(OC)c2)C1=O
IC50 ([6]; read-out: IC50): 22.4 µM
inhibition [7]: 81.8%

CCN(CC)C(=O)CN1C(=O)S/C(=C\c2cccc(OC)c2)C1=O
inhibition [8]: 15%
solubility [9]: Insoluble

O=C(CN1C(=O)S/C(=C\c2ccc(O)cc2)C1=O)Nc1ccccc1Cl
logD [4]: 3.68
IC50 ([6]; read-out: IC50): 0.95 µM
solubility at 2 h, 200 µM [5]: 5.24 µM (≈ 2.04 µg/mL)
IC50 [12]: 13.5 µM

CCN(CC)C(=O)CN1C(=O)S/C(=C\c2cccc(O)c2)C1=O
inhibition [8]: 0%
solubility [9]: Insoluble

O=C(CN1C(=O)S/C(=C\c2ccc(O)cc2)C1=O)Nc1ccccc1
IC50 ([6]; read-out: IC50): 2.93 µM
Ratio IC50 [11]: 1.3
IC50 [12]: 3.91 µM

CCN(CC)C(=O)CN1C(=O)S/C(=C\c2ccc(O)cc2)C1=O
inhibition [10]: 77.7%
IC50 ([6]; read-out: IC50): 1.33 µM
solubility [9]: Insoluble
Ratio IC50 [11]: 9.4
IC50 [12]: 12.5 µM

O=C(CCCN1CCC(O)(c2ccc(Cl)cc2)CC1)c1ccc(F)cc1 [HALOPERIDOL]
solubility at 2 h, 200 µM [5]: 73.3 µM (≈ 27.6 µg/mL)

CCN(CC)C(=O)CN1C(=O)S/C(=C\c2ccc(Cl)cc2)C1=O
inhibition [8]: 14%
solubility [9]: Insoluble

O=C(CN1C(=O)S/C(=C\c2ccccc2)C1=O)NCCc1ccccc1
inhibition [10]: 13.2%
solubility [9]: Insoluble

CCN(CC)C(=O)CN1C(=O)S/C(=C\c2cccs2)C1=O
inhibition [8]: 6.22%
solubility [9]: Insoluble

CCN(CC)C(=O)CN1C(=O)S/C(=C\c2ccccc2)C1=O
inhibition [10]: 16.8%
IC50 ([6]; read-out: IC50): 23.5 µM
solubility [9]: Insoluble

O=C(CN1C(=O)S/C(=C\c2ccc(OCc3ccc(Cl)cc3Cl)cc2)C1=O)NCc1ccccc1
inhibition [10]: 11.9%
IC50 [6]: Nd(Insoluble)

COc1cc2nc(N3CCN(C(=O)c4ccco4)CC3)nc(N)c2cc1OC [PRAZOSIN]
efflux ratio [13]: 1.9
Papp A→B at 2.5 h [14]: 6.85 ×10⁻⁶ cm/s
Papp B→A at 2.5 h [15]: 12.9 ×10⁻⁶ cm/s

C#CCOc1ccc(/C=C2\SC(=O)N(CC(=O)NCc3ccccc3)C2=O)cc1
inhibition [10]: 30.1%
IC50 [6]: Nd(Insoluble)

CCc1ccc(/C=C2\SC(=O)N(CC(=O)N(CC)CC)C2=O)cc1
inhibition [8]: 5.05%
solubility [9]: Insoluble

O=C(CN1C(=O)S/C(=C\c2cccc(O)c2)C1=O)NCc1ccccc1
IC50 ([6]; read-out: IC50): 3.25 µM
Ratio IC50 [11]: 8.6
IC50 [12]: 28 µM

CCN(CC)C(=O)CN1C(=O)S/C(=C\c2ccc(C)cc2)C1=O
inhibition [8]: 20.2%
solubility [9]: Insoluble

C#CCOc1ccc(/C=C2\SC(=O)N(CC(=O)Nc3ccccc3)C2=O)cc1
inhibition [10]: 8.83%
IC50 [6]: Nd(Insoluble)

CCOc1ccc(NC(=O)CN2C(=O)S/C(=C\c3ccc(OC)c(O)c3)C2=O)cc1
inhibition [10]: 25.3%
IC50 [6]: Nd(Insoluble)

COc1ccc(NC(=O)CN2C(=O)S/C(=C\c3ccccc3)C2=O)cc1
inhibition [10]: 29.2%
solubility [9]: Insoluble

C=C[C@H]1C[N@@]2CC[C@H]1C[C@@H]2[C@@H](O)c1ccnc2ccc(OC)cc12 [QUINIDINE]
efflux ratio [13]: 6.6
Papp A→B at 2.5 h [14]: 3.27 ×10⁻⁶ cm/s
Papp B→A at 2.5 h [15]: 21.4 ×10⁻⁶ cm/s

O=C(CN1C(=O)S/C(=C\c2ccccc2)C1=O)NC1CC1
inhibition [10]: 2.85%
solubility [9]: Insoluble

COc1ccc(NC(=O)CN2C(=O)S/C(=C\c3ccc(O)cc3)C2=O)cc1
IC50 ([6]; read-out: IC50): 1.65 µM
Ratio IC50 [11]: 3.2
IC50 [12]: 5.3 µM

CCN(CC)C(=O)CN1C(=O)S/C(=C\c2ccc(OC)c(O)c2)C1=O
inhibition [7]: 31.6%

CCCCNC(=O)CN1C(=O)S/C(=C\c2ccc(OC)cc2)C1=O
IC50 ([6]; read-out: IC50): 20.3 µM
solubility [9]: Insoluble
Ratio IC50 [11]: 0.8
IC50 [12]: 17 µM

COc1ccc(/C=C2\SC(=O)N(CC(=O)NCc3ccccc3)C2=O)cc1O
IC50 ([6]; read-out: IC50): 10.9 µM

Reference: ChEMBL document CHEMBL4831491, “Non-carboxylic acid inhibitors of aldose reductase based on N-substituted thiazolidinedione derivatives” (Eur J Med Chem, 2021)
